Earlier results as cited in US20160231323A1, “PROTECTION OF TCR SIGNALING CHAINS IN CANCER PATIENTS AND ENHANCEMENT OF CAR-T CELL THERAPY” (Batu Biologics, Inc., priority 2015, published 2016).

What was measured:
[1] = test system: sepsis-induced immune suppression; settings: animals undergoing experimental sepsis
plasma CRP = settings: 1000 mg/day for 2 months, healthy nonsmokers, versus vitamin E or placebo
HIF-1 alpha = settings: results in suppressed angiogenic activity
[2] = test system: proliferating tumor endothelial cells
tumors = settings: paradoxical oxidative mechanism
[3] = test system: CD8(+) effector and effector memory T cells; settings: mice given vitamin C treated DC loaded with tumor lysate
PGE 2 = settings: several animal models
[4] = test system: constitutively activated neutrophils
[5] = test system: markers of oxidative stress; settings: smokers
Kaposi Sarcoma = settings: oral administration
TCR-ζ = settings: addition to co-incubation of cancer patient neutrophils with healthy lymphocytes
[6] = test system: IFN-[…] and IL-2 production; settings: daily dose of 750 mg for 2 weeks, Duke's C and D colorectal cancer

O=C1O[C@H]([C@@H](O)CO)C(O)=C1O [ascorbic acid]
immune suppression in experimental sepsis [1]: blocked immune suppression
plasma CRP levels (plasma CRP): statistically significant decrease
tumor expression of HIF-1 alpha (HIF-1 alpha): reduce tumor expression of HIF-1 alpha
effect on proliferating tumor endothelial cells [2]: Direct suppression
effect on tumors (tumors): direct killing effect
frequency of effector and effector memory T cells ([3]; versus control DC): higher frequency
ex vivo killing of tumor cells by the T cells ([3]; versus controls): increased ex vivo killing effect

COc1ccc2c(c1)c(CC(=O)O)c(C)n2C(=O)c1ccc(Cl)cc1 [indomethacin]
metastatic progression (PGE 2): significantly impedes metastatic progession

CC(=O)N[C@@H](CS)C(=O)O [n-acetylcysteine]
immune suppression in experimental sepsis [1]: blocked immune suppression
clinical effect in sepsis ([4]; as a monotherapy): little clinical effect
constitutively activated neutrophils in sepsis patients ([4]; therapeutic administration): suppression of the constitutively activated neutrophils
markers of oxidative stress [5]: suppression of markers of oxidative stress
angiogenesis (Kaposi Sarcoma): blocks angiogenesis
growth of Kaposi Sarcoma (Kaposi Sarcoma): suppresses growth of Kaposi Sarcoma

catalase
TCR-ζ downregulation (TCR-ζ): suppressed TCR-ζ downregulation

vitamin E
IFN-[…] and IL-2 production [6]: restoration of IFN-[…] and IL-2 production
